Measurements reported in paper PMC7824769, “Identification of Small Molecules Blocking the Pseudomonas aeruginosa Type III Secretion System Protein PcrV” (Biomolecules, 2021).

Target: PcrV (Pseudomonas aeruginosa, UniProt G3XD49)
Assay: SPR library screening at 100 µM, PcrV versus deactivated control protein CAII
Format: binding
Settings: Figure 2
Description: The SPR screening was performed using the ProteOn^TM XPR36 Protein Interaction Array System (Bio-Rad Laboratories Inc., Hercules, CA, USA) with ProteOn GLH sensor chip (Bio-Rad Laboratories Inc., Hercules, CA, USA), and the results were analyzed with the ProteOn Manager software^TM (Bio-Rad Laboratories Inc., Hercules, CA, USA), Excel 2016 (Microsoft Office), and GraphPad Prism 7.04. All SPR experiments were performed at 25 °C. The multichannel module of the ProteOn system was in the vertical position during protein immobilization. The proteins were attached to the surface of a GLH sensor chip via amine coupling chemistry. A buffer scouting was performed to elucidate the optimal binding conditions of PcrV to the GLH sensor chip. First, channels 1–4 on the chip surface were activated using a 1:1 mixture of 40 mM 1-ethyl-3-(3-dimethylaminopropyl)carbodiimide hydrochloride (EDAC) (Bio-Rad Laboratories Inc., Hercules, CA, USA) and 10 mM N-hydroxysulfosuccinimide (sulfo-NHS, Bio-Rad Laboratories Inc., Hercules, CA, USA) for 300 s at 30 µL/min. Next, the proteins PcrV (33,398.6 Da, 6.37 mg/mL) was diluted in 10 mM NaOAc (pH 4, 4.5, and 5) to 0.05 mg/mL. PcrV was immobilized in channel 1–3 for 540 s at 30 µL/min. […] The final amount of immobilized protein was measured in resonance units (RU) relative to the signal of the baseline prior activation. […]

Sequence of PcrV (G3XD49 entry or part of it): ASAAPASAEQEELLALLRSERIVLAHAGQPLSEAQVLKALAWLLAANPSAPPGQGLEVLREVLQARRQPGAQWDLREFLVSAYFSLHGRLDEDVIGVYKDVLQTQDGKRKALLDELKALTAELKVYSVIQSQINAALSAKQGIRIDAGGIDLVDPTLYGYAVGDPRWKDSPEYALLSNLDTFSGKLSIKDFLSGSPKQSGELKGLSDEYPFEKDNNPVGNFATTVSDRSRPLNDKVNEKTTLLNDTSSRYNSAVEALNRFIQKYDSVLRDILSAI

Cc1c(Br)ccc(OCCCC(=O)O)c1C [Compound H1]
Selectivity of binding to PcrV over CAII in SPR screening: selective PcrV binders
